Results published in US20080019926A1, “Lung Surfactant Supplements” (priority 2004, published 2008).
Entries after “also recorded” stand apart in the source; their conditions may differ.

Key:
Format in all cases: physicochemical
[1] = Compression isotherm (surface pressure versus molecular area) of a Langmuir DPPC monolayer as pulmonary surfactant model
Description: The monolayer of native pulmonary surfactant was modeled by a Langmuir monolayer of DPPC. In this model, the DPPC molecules were spread using a spreading solvent onto the surface of water contained in a trough coated with Teflon®. After evaporation of the solvent, the DPPC molecules were progressively compressed using two mobile Teflon® barriers. The variation of the surface pressure was measured as a function of the compression by a pressure sensor such as a Wilhelmy blade.
Small quantities of perfluorooctyl bromide (PFOB) in liquid form (1-200 μl), contacted with the DPPC monolayer, result in the disappearance of the liquid expanded/liquid condensed phase transition of the phospholipid. […] FIG. 1 compares the compression isotherms of a DPPC monolayer alone and in contact with the fluorocarbon. In absence of fluorocarbon, one notes the presence of a plateau reflecting the coexistence of the expanded liquid state (fluid phase) and the condensed liquid state (crystalline islets). […] The DPPC monolayer is totally fluid.
Placing the Langmuir trough in a close space saturated with PFOB vapour, it is possible to study the interactions between the DPPC monolayer and the gaseous PFOB.

[2] = Grazing incidence X-ray diffraction of the DPPC monolayer; conditions: gaseous fluorocarbon, DPPC monolayer compressed at 40 mN·m^−1
Excerpt: The two diffraction peaks seen in the absence of fluorocarbon are characteristics of the molecular organisation of DPPC in crystalline islets (▪).

[3] = Fluorescence microscopy of the DPPC monolayer contacted with gaseous fluorocarbon
Excerpt: Fluorescence microscopy makes it possible to visualize the dissolution of crystalline islets of DPPC molecules when the monolayer is contacted with gaseous PFOB (FIG. 3A).

[4] = gaseous fluorocarbon, saturated atmosphere

Structure (SMILES) | plateau reflecting the coexistence of the expanded liquid state (fluid phase) and the condensed liquid state (crystalline islets) in the DPPC compression isotherm [1, 4] | diffraction peaks characteristic of DPPC crystalline islets / crystalline islets [2] | state of the DPPC monolayer ([1]; gaseous fluorocarbon) | state of the DPPC monolayer ([1]; liquid fluorocarbon) | plateau reflecting the coexistence of the expanded liquid state (fluid phase) and the condensed liquid state (crystalline islets) in the DPPC compression isotherm ([1]; liquid fluorocarbon (1-200 μl) contacted with the DPPC monolayer) | crystalline islets of DPPC seen by fluorescence microscopy, course with time ([3]; monolayer compressed at 10 mN·m^−1, 3, 5 and 7 min) | crystalline islets of DPPC seen by fluorescence microscopy ([3]; monolayer compressed at 10 mN·m^−1, after 3 minutes) | crystalline islets of DPPC seen by fluorescence microscopy ([3]; monolayer compressed at 10 mN·m^−1, after 5 minutes) | crystalline islets of DPPC seen by fluorescence microscopy ([3]; monolayer compressed at 10 mN·m^−1, after 7 minutes)
FC(F)(F)C(F)(F)C(F)(F)C(F)(F)C=CC(F)(F)C(F)(F)C(F)(F)C(F)(F)F [Example F-44E, bis(perfluorobutyl)ethene] | no longer seen; also recorded: disappears | these peaks have disappeared; also recorded: disappearance of the crystalline islets | – | – | – | – | – | – | –
FC(F)(F)C(F)(F)C(F)(F)C(F)(F)C(F)(F)C(F)(F)C(F)(F)C(F)(F)Br [PFOB, 1-bromo-heptadecafluorooctane] | no longer seen; also recorded: disappears | – | totally fluid | totally fluid | no longer seen; also recorded: disappeared totally | progressively disappear | becomes small | almost completely re-spread | completely disappeared
